Here are results for 12 compounds from patent US9199962B2, “Substituted azaheterocycles for the treatment of cancer” (Merck Patent GmbH, priority 2011, dated 2015).

SMILES strings stand for the structures. Like-named read-outs stand apart in the source and are kept apart here. Some results are limits rather than exact numbers.

Assay [1] addresses T1, focal adhesion kinase (FAK) autophosphorylation at tyrosine 397 in HT29 cells (Homo sapiens, UniProt Q05397).
T1 construct: endogenous in cells; host or cells: HT29
The assay can be described thus: Cellular testing of FAK inhibitors: FAK autophosphorylation at tyrosine 397 in HT29 cells (Luminex-based assay). Format: cell-based. To be noted: 30 min serum-free. The method, then: 2. Assay Principle for Celluar Testing of FAK Inhibitors
Cellular activity of focal adhesion kinase (FAK) is determined by the degree of FAK autophosphorylation at tyrosine 397 using a Luminex-based assay. HT29 cells are plated with 30,000 cells per well of a 96-well plate in 100 μl medium (90% DMEM/10% FCS). At the following day, test compounds are added in a serial dilution under serum-free conditions for 30 min. Then, cells were lysed with 90 μl lysis buffer (20 mM Tris/HCl pH 8.0, 150 mM NaCl, 1% NP40, 10% Glycerol, 1% Phosphatase-Inhibitor II, 20 mM […]-Glycerolphosphat, 0.1% Protease-Inhibitor Cocktail III, 0.01% Benzonase) and lysates were cleared by centrifugation through a 96-well filter plate (0.65 μm). Samples were incubated with Luminex-beads which were coupled with an anti-total FAK antibody overnight at 4° C. with under gentle agitation. For detection of phospho-Y397-FAK a phosphospecific antibody and a species specific PE-labeled secondary antibody are added. The amount of phospho-Y397-FAK is determined in a Luminex100 machine measuring 100 events per well within 60 seconds.
Counts from samples treated with a FAK reference inhibitor are subtracted as pharmacological blank. Counts from samples treated with test compounds are calculated as percent of control from solvent treated (0.3% DMSO) samples. IC50 values were determined using AssayExplorer software.

Assay [2] deals with T2, GST-FAK (N-terminal GST fusion with truncated human FAK (376-1052 (end) amino acids)) (Homo sapiens, UniProt Q05397).
T2 construct: truncated human FAK (376-1052 (end) amino acids)
The assay can be described thus: Biochemical enzyme assay for FAK activity (Caliper LC3000 mobility shift). To be noted: 100 uM ATP. Summed up:
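Inhibitor dose series in DMSO were incubated 90 min at 25 °C with truncated GST-tagged human FAK (0.067 ng/µl) and FITC-labelled peptide substrate (1 µM), with ATP at 100 µM and FERM peptide at 1 mM (pH 7.5 HEPES). After EDTA quench, phosphorylated and unphosphorylated peptides were resolved electrophoretically. Percent conversion was fitted for IC50.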

[3] abbreviates: Table 3, phospho-Y397-FAK, read-out: HT-29 IC50.
Setting [4] is: Table 2, phospho-Y397-FAK, read-out: HT-29 IC50.

T1 sequence (Q05397 whole entry): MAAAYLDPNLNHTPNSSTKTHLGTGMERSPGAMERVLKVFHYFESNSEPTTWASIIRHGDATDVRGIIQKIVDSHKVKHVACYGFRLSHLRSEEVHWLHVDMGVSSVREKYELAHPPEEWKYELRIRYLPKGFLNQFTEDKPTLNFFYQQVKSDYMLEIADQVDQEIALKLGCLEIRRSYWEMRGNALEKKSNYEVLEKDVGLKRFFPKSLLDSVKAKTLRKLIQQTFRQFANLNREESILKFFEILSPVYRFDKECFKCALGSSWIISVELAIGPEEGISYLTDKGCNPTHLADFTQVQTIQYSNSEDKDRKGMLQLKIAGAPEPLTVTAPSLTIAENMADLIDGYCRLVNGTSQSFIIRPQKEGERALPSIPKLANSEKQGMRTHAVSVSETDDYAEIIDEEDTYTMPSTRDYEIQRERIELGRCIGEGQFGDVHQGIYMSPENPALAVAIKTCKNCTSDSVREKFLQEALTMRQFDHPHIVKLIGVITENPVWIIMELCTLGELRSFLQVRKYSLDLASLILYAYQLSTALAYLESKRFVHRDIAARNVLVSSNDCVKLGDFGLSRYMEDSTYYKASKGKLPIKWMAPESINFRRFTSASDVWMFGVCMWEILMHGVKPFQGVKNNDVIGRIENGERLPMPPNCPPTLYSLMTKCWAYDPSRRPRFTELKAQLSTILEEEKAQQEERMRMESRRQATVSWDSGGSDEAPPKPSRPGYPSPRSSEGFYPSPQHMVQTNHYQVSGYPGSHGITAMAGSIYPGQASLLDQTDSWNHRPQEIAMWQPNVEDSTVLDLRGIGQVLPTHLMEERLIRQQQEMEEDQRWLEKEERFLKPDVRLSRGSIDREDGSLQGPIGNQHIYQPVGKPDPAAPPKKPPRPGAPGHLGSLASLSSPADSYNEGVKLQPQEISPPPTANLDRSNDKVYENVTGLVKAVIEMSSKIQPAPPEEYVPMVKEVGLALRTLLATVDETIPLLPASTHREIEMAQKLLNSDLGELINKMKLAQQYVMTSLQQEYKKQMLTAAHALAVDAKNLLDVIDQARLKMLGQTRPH
T2 sequence (Q05397 376-1052): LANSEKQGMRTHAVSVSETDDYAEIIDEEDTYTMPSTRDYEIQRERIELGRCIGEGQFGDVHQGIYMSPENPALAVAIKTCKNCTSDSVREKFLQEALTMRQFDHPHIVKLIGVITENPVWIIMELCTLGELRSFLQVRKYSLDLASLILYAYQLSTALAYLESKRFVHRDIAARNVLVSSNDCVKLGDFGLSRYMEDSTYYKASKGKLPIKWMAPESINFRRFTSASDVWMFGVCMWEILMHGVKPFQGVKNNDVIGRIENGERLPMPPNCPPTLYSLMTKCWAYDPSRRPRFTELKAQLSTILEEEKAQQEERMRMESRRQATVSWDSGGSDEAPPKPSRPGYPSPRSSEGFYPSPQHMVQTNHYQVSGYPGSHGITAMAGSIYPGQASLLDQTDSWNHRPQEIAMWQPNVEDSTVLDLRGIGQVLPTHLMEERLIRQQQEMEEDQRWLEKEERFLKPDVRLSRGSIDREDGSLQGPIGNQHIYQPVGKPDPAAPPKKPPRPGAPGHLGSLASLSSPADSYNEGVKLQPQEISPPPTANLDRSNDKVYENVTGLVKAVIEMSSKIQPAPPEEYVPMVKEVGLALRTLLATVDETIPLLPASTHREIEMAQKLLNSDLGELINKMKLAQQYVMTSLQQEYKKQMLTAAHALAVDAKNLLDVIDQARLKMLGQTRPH

Broadly, the IC50 is the concentration that gives 50% inhibition. For the compound `FC(F)(F)c1ccccc1CNc1ccnc(-c2cncc(Cl)c2)n1` [Compound 108, 2-(5-Chloropyridin-3-yl)-N-[2-(trifluoromethyl)benzyl]pyrimidin-4-amine], the IC50 in assay [1] (setting [3]) is 1000 to 10000 nM; in assay [2] (Table 3, read-out: FAK IC50), under 100 nM.
Turning to `O=C(NCCCN1CCOCC1)c1cc(NCc2ccc(F)cc2F)nc(-c2cncc(C(F)(F)F)c2)n1` [Compound 48, 6-(2,4-Difluoro-benzylamino)-2-(5-trifluoromethyl-pyridin-3-yl)-pyrimidine-4-carboxylic acid (3-morpholin-4-yl-propyl)-amide], the IC50 in assay [1] (setting [4]) is over 10000 nM; in assay [2] (Table 2, read-out: FAK IC50), under 100 nM.
With `Fc1ccc(CNc2ccnc(-c3cncc(Cl)c3)n2)c(F)c1` [Compound 114, 2-(5-Chloropyridin-3-yl)-N-(2,4-difluorobenzyl)pyrimidin-4-amine], the IC50 is 100 to 1000 nM in assay [1] (setting [3]) and under 100 nM in assay [2] (Table 3, read-out: FAK IC50).
Regarding `CC(Nc1ccnc(-c2cncc(Cl)c2)n1)c1ccccc1C(F)(F)F` (stereo not drawn) [Compound 124, 2-(5-Chloropyridin-3-yl)-N-{1-[2-(trifluoromethyl)phenyl]ethyl}pyrimidin-4-amine], the IC50 in assay [1] (setting [3]) is 1000 to 10000 nM; in assay [2] (Table 3, read-out: FAK IC50), under 100 nM.
For `Fc1ccc(CNc2cc(NCCCN3CCOCC3)nc(-c3cncc(C(F)(F)F)c3)n2)c(F)c1` [Compound 58, N-(2,4-Difluoro-benzyl)-N′-(3-morpholin-4-yl-propyl)-2-(5-trifluoromethyl-pyridin-3-yl)-pyrimidine-4,6-diamine], the 50% inhibitory concentration (IC50) was 1000 to 10000 nM in assay [1] (setting [4]) and under 100 nM in assay [2] (Table 2, read-out: FAK IC50).
The corresponding values for `Fc1ccc(CNc2cc(NCCCn3ccnc3)nc(-c3cncc(C(F)(F)F)c3)n2)c(F)c1` [Compound 56, N-(2,4-Difluoro-benzyl)-N′-(3-imidazol-1-yl-propyl)-2-(5-trifluoromethyl-pyridin-3-yl)-pyrimidine-4,6-diamine] are 1000 to 10000 nM and 100 to 1000 nM.
`CN(C)CCCCNc1cc(NCc2ccc(F)cc2F)nc(-c2cncc(C(F)(F)F)c2)n1` [Compound 65, N-(2,4-Difluoro-benzyl)-N′-(4-dimethylamino-butyl)-2-(5-trifluoromethyl-pyridin-3-yl)-pyrimidine-4,6-diamine]: the IC50 in assay [1] (setting [4]) is over 10000 nM; in assay [2] (Table 2, read-out: FAK IC50), 100 to 1000 nM.
Take `CN(C)CCNC(=O)c1cc(NCc2ccc(F)cc2F)nc(-c2cncc(C(F)(F)F)c2)n1` [Compound 148, 6-[(2,4-difluorophenyl)methylamino]-N-(2-dimethylaminoethyl)-2-[5-(trifluoromethyl)-3-pyridyl]pyrimidine-4-carboxamide]: the IC50 in assay [1] (Table 4, phospho-Y397-FAK, read-out: IC50 HT-29) was 100 to 1000 nM; in assay [2] (Table 4, read-out: IC50 FAK), under 100 nM.
Take `CN1CCC(CNC(=O)c2cc(NCc3ccc(F)cc3F)nc(-c3cncc(C(F)(F)F)c3)n2)C1` (stereo not drawn) [Compound 51, 6-(2,4-Difluoro-benzylamino)-2-(5-trifluoromethyl-pyridin-3-yl)-pyrimidine-4-carboxylic acid (1-methyl-pyrrolidin-3-ylmethyl)-amide]: the concentration for half-maximal inhibition (IC50) in assay [1] (setting [4]) was 1000 to 10000 nM; in assay [2] (Table 2, read-out: FAK IC50), under 100 nM.
As to `Nc1ncc(Cl)cc1-c1nccc(NCc2ccc(F)cc2F)n1` [Compound 126, 2-(2-Amino-5-chloropyridin-3-yl)-N-(2,4-difluorobenzyl)pyrimidin-4-amine], the 50% inhibitory concentration (IC50) is 1000 to 10000 nM in assay [1] (setting [3]) and under 100 nM in assay [2] (Table 3, read-out: FAK IC50).
As to `O=C(NCCc1c[nH]cn1)c1cc(NCc2ccc(F)cc2F)nc(-c2cncc(C(F)(F)F)c2)n1` [Compound 52, 6-(2,4-Difluoro-benzylamino)-2-(5-trifluoromethyl-pyridin-3-yl)-pyrimidine-4-carboxylic acid [2-(1H-imidazol-4-yl)-ethyl]-amide], the IC50 in assay [1] (setting [4]) was 1000 to 10000 nM; in assay [2] (Table 2, read-out: FAK IC50), under 100 nM.
For `NC(=O)C1CCN(c2cc(NCc3ccc(F)cc3F)nc(-c3cncc(C(F)(F)F)c3)n2)CC1` [Compound 59, 1-[6-(2,4-Difluoro-benzylamino)-2-(5-trifluoromethyl-pyridin-3-yl)-pyrimidin-4-yl]-piperidine-4-carboxylic acid amide], the half-inhibitory concentration (IC50) in assay [1] (setting [4]) fell in the range of 1000 to 10000 nM; in assay [2] (Table 2, read-out: FAK IC50) it was 100 to 1000 nM.
